Experimental data from patent US11801235B2, “Methods and compositions for delivery of biotin to mitochondria” (priority 2020, dated 2023).
Square brackets hold non-standard residues; d marks the D form. Peptide text beside a SMILES is read from it. * marks the point of attachment. Biotin = O=C1N[C@H]2[C@H](CS[C@H]2CCCCC(=O)*)N1; Dmt = Cc1cc(O)cc(C)c1C[C@H](N)C(=O)O

Assays:
[1] = system: ARPE-19 human retinal pigment epithelial cells; assay: Mitochondrial localization: co-localization with cytochrome c oxidase subunit 4 (COX4); assay type: cell-based; details: ARPE-19 cells, 1 uM, 2 hours, serum-free DMEM/F12
Description: Cells were fixed with 4% PFA at RT for 10 min and then permeabilized with 0.1% Triton X-100 at RT for 10 min. Cells were blocked with 2% BSA (bovine serum albumin) at RT for 30 min, and then incubated with primary antibody for cytochrome c oxidase subunit 4 (COX4), a major protein complex expressed on the inner mitochondrial membrane. The rabbit polyclonal COX4 antibody (Invitrogen PAS-29992, Waltham, MA) was used at 1:500 dilution in 2% BSA at 4° C. overnight.

[2] = system: ARPE-19 human retinal pigment epithelial cell monolayers; assay: Cell proliferation at scratch edge (PCNA staining); assay type: cell-based; details: ARPE-19 cells, 10 nM, serum-free, 24 hours after scratch
Description: (§1) Re-epithelialization of a wound area require proliferation of cells at the wound edge, which can be impaired in most wounds due to lack of blood flow to deliver nutrients and/or growth factor(s) that can be necessary for cell proliferation. Cell proliferation in the wound edge can be monitored by proliferating cell nuclear antigen (PCNA) staining. To mimic the microenvironment of wounds in vitro, serum-free medium was used for the scratch assay in cell cultures.
(§2) Proliferating cells were identified by immunostaining with antibody to proliferating cell nuclear antigen (PCNA) according to standard procedures as presented in IHC World. PCNA staining was performed using the same plate of cells after determination of scratch area. […] All cell nuclei stain blue with Hoechst, but nuclei of proliferating cells stain red. The number of proliferating cells per field was quantified by the intensity of red nuclear stain and normalized to intensity of blue nuclear stain (determined by Nikon NIS-Elements Imaging Software).

HK-2 cells [3] = assay: In vitro scratch assay (scratch area); assay type: cell-based, human; details: 10 nM; for scratch area after 24 hours, microscopic images FIG. 15: serum-free DMEM, 24 hours after mechanical scratch; for closure of the scratch area compared to control, FIG. 16 and FIG. 17 / effectiveness in reducing scratch area compared to free biotin, FIG. 16 and FIG. 17: serum-free, 24 hours
Description: (§3) Certain exemplary peptide-conjugated biotin molecules can accelerate wound healing in cell cultures. The in vitro scratch assay is an easy and well-developed method to measure cell proliferation and migration over a “wound area” in vitro. This assay involves creating a “scratch” in a cell monolayer with a pipette tip and then examining the rate at which cells proliferate and migrate to close the scratch.
3×10^5 cells were plated per well in 6-well plates in DMEM at 37° C. in a humidified incubator with 5% CO2 for one day prior to the experiment. To mimic the microenvironment of wounds in vitro, serum-free medium was used in the scratch assay. On the day of the scratch assay, the medium was replaced with serum-free DMEM, and a line scraped across the cell monolayer using a p1000 pipette tip. Cells were washed to remove cell debris and replaced with DMEM alone (control), or DMEM containing 10 nM biotin or peptide-conjugated biotin molecules.
(§4) The scratch area was examined immediately (day 0) using a Nikon Eclipse Ti2 fluorescence microscope. Six different field were captured for each sample using 4×objective. The scratch area (cell-free zone) was calculated using ImageJ software, an open-source Java image processing program inspired by NIH Image (National Institute of Health). The scratch area was re-examined after 24 hours (day 1), and the area was normalized to the area determined on day 0 for the same sample. All results were calculated as change from no-treatment control and averaged for the six fields.

HK-2 cells [4] = assay: Cellular ATP in extreme starvation model (serum-free 5% DMEM in PBS, 3 days); assay type: cell-based, human; details: 10 nM
Description: ATP was measured using the ApoSENSOR ATP Bioluminescence Assay Kit (BioVision) according to manufacturer's protocol. This kit utilizes luciferase to catalyze the formation of light from ATP and luciferin. Briefly, cells were treated with 100 ul of Nuclear Releasing Buffer for 5 min at RT with gentle shaking. 10 ul of ATP Monitoring Enzyme was added to cell lysate, and luminescence was measured using a microplate reader (SpectraMax iD3, Molecular Device). ATP levels were normalized to the serum-free DMEM control group (arbitrarily set to 1.0).
The second model uses an extreme starvation model whereby HK-2 cells were cultured in 96-well plates in serum-free 5% DMEM in PBS (phosphate-buffered saline) for 3 days. Cells were treated with 10 nM free biotin or peptide-conjugated biotin molecules. All treatments were carried out with N=6 in each experiment.

[5] = system: HK-2 human renal epithelial cell monolayers; assay: Cell proliferation at scratch edge (PCNA staining); assay type: cell-based; details: HK-2 cells, 10 nM, serum-free, 24 hours after scratch; for number of proliferating cells normalized to all nuclei, FIG. 21: compared to control or biotin
Description: as §1, §2

HK-2 cells [6] = assay: Mitochondrial potential (TMRM) of cells at the scratch edge; assay type: cell-based, human; details: 10 nM, serum-free, 24 hours after scratch; for mitochondrial potential (red fluorescence) normalized to nuclear number, FIG. 25: compared to control
Description: Rapidly dividing cells can need ATP to support the synthesis of important building blocks. Tissue injury can cause rapid mitochondrial depolarization that compromises ATP production and/or results in cell death. The loss of ATP can further impair cell proliferation and/or tissue repair. Mitochondrial potential can be monitored in the cells at the edge of the scratch area using the cell-permeable potential-dependent dye TMRM (tetramethylrhodamine methyl ester). TMRM can accumulate in negatively charged polarized mitochondria and can be detected as red fluorescence. To mimic the microenvironment of wounds in vitro, serum-free medium was used in the scratch assay. […] HK-2 cells were then incubated with 5 nM TMRM in DMEM without phenol red and incubated for 30 min. Cells were then covered with live cell image buffer and imaged using Nikon Eclipse Ti2 fluorescent microscope (20× objective).

HK-2 cells [7] = assay: Cell viability (Alamar Blue) after 11 days of serum starvation; assay type: cell-based, human; details: 10 nM, vs serum-free control
Description: In the first model, HK-2 cells were cultured in 96-well plates in serum-free DMEM alone or in serum-free DMEM containing 10 nM of SPN11 or SPN12 for 11 days. Culture medium was replaced every 3 days.
(§5) Cell viability was measured using the Alamar Blue Cell Proliferation Assay (Bio-Rad), according to manufacturer's protocol. Alamar Blue uses resazurin to measure reducing power of living cells. The weakly fluorescent resazurin is reduced to the highly fluorescent resorufin when reduced by cellular metabolism. Briefly, alamar blue reagent (10 ul) was added to the culture medium and incubated for 1 h at 37° C. Fluorescence from resorufin (Ex/Em 530/590 nm) was detected using a microplate reader (SpectraMax iD3, Molecular Devices).

ARPE-19 cells [8] = assay: Cell number and viability after 30 days of serum deprivation; assay type: cell-based, human; details: 10 nM
Description: as §5
In the second model, ARPE-19 cells were grown in serum-free DMEM in the absence or presence of peptide-conjugated biotin molecules for 30 days. Serum-free media was supplemented with 10 nM of SPN12, SPN15 or SPN16 compounds (all at 10 nM) was replaced every 3 days. Culture medium was replaced every 3 days.

ARPE-19 cells [9] = assay: In vitro scratch assay (scratch area); assay type: cell-based, human
Description: as §3, §4

[10] = system: ARPE-19 human retinal pigment epithelial cells; assay: Biotin uptake by streptavidin-Alexa Fluor 594 fluorescence in ARPE-19 cells; details: 1 uM, 1-hour incubation, serum-free
Description: Cellular uptake and localization of peptide-conjugated biotin molecules were determined in HK-2 human renal epithelial cells and ARPE-19 human retinal pigment epithelial cells (ATCC, Manassas, VA). HK-2 cells were cultured in Dulbecco's Modified Eagle's Medium (DMEM) containing 1 g/L glucose and 10% fetal bovine serum (FBS), 100 units/ml penicillin and 100 ug/ml streptomycin. ARPE-19 cells were cultured in DMEM/F12 medium containing 1 g/L glucose and 10% fetal bovine serum (FBS), 100 units/ml penicillin and 100 ug/ml streptomycin. Cells were incubated in humidified incubator with 5% CO2 at 37° C. HK-2 cells and ARPE-19 cells were seeded in 35 mm dish at an initial density of 5×10^4 cells. FBS was removed from the culture medium for 3 days to deplete endogenous biotin in the cells. […]
Biotin uptake was determined using Streptavidin binding. […] By using Alexa Fluor 594-conjugated streptavidin, it is possible to visualize biotin uptake using fluorescence microscopy. […] Live cell image buffer was added and Alexa-594 fluorescence (Ex/Em=591/614 nm) and Hoechst fluorescence ([…]) was observed using the Nikon Eclipse Ti2 fluorescence microscope (100×oil objective). Ten random fields from each sample were quantified by NIS-Elements Imaging Software (Nikon) for streptavidin fluorescence and normalized to Hoechst fluorescence to account for number of cells per field.

| SMILES | number of proliferating (PCNA-positive) cells at the edge of the scratch, images FIG. 22 [2] | scratch area after 24 hours, microscopic images FIG. 15 (HK-2 cells [3]) | closure of the scratch area compared to control, FIG. 16 and FIG. 17 (HK-2 cells [3]) | effectiveness in reducing scratch area compared to free biotin, FIG. 16 and FIG. 17 (HK-2 cells [3]) | number of proliferating cells normalized to all nuclei, FIG. 21 [5] | number of cells with good mitochondrial potential (TMRM) at scratch edge, images FIG. 24 (HK-2 cells [6]) | mitochondrial potential (red fluorescence) normalized to nuclear number, FIG. 25 (HK-2 cells [6]) | further results |
| --- | --- | --- | --- | --- | --- | --- | --- | --- |
| Cc1cc(O)cc(C)c1C[C@H](NC(=O)[C@@H](CCCNC(=N)N)NC(=O)CCCC[C@@H]1SC[C@@H]2NC(=O)N[C@@H]21)C(=O)N[C@@H](CCCCN)C(=O)N[C@@H](Cc1ccccc1)C(N)=O [SPN05, D-Biotin-D-Arg-L-(2′6′-dimethylTyr)-L-Lys-L-Phe-NH2] (Biotin-[dR][Dmt]KF-NH2) |  |  |  |  |  |  |  | co-localization of biotin staining with COX4 staining (inner mitochondrial membrane), FIG. 6 [1]: co-localization |
| N=C(N)NCCC[C@@H](NC(=O)[C@@H](Cc1c[nH]c2ccccc12)NC(=O)CCCC[C@@H]1SC[C@@H]2NC(=O)N[C@@H]21)C(=O)N[C@H](Cc1c[nH]c2ccccc12)C(=O)N[C@H](CCCCN)C(=O)O [SPN08, D-Biotin-D-Trp-D-Arg-D-Trp-D-Lys-OH] (Biotin-[dW][dR][dW][dK]-OH) | increased the number of proliferating cells |  |  |  |  |  |  |  |
| N=C(N)NCCC[C@@H](NC(=O)[C@H](N)Cc1c[nH]c2ccccc12)C(=O)N[C@H](Cc1c[nH]c2ccccc12)C(=O)N[C@H](CCCCNC(=O)CCCC[C@@H]1SC[C@@H]2NC(=O)N[C@@H]21)C(=O)O [SPN09, D-Trp-D-Arg-D-Trp-D-Lys(biotinyl)-OH] (H-[dW][dR][dW][dK](Biotin)-OH; N-terminus assumed) | increased the number of proliferating cells |  |  |  |  |  |  |  |
| N=C(N)NCCC[C@H](NC(=O)[C@@H](N)Cc1c[nH]c2ccccc12)C(=O)N[C@@H](Cc1c[nH]c2ccccc12)C(=O)N[C@@H](CCCCNC(=O)CCCC[C@@H]1SC[C@@H]2NC(=O)N[C@@H]21)C(N)=O [SPN11, L-Trp-L-Arg-L-Trp-L-Lys(biotinyl)-NH2] (H-WRWK(Biotin)-NH2; N-terminus assumed) | increased the number of proliferating cells | almost completely closed | significantly accelerated the closure of the scratch area | twice as effective | doubled | increased the number of cells with good mitochondrial potential | significantly increased mitochondrial potential | ATP content compared to free biotin under extreme starvation, FIG. 12 (HK-2 cells [4]): doubling; number of proliferating (PCNA-positive) cells at the edge of the scratch, images FIG. 20 ([5]; compared to free biotin): increased the number of proliferating cells; improvement of cell viability in the absence of serum, FIG. 7 (HK-2 cells [7]): 35% |
| N=C(N)NCCC[C@@H](NC(=O)CCCC[C@@H]1SC[C@@H]2NC(=O)N[C@@H]21)C(=O)N[C@@H](Cc1ccc(O)cc1)C(=O)N[C@H](CCCNC(=N)N)C(=O)N[C@@H](Cc1ccccc1)C(=O)N[C@@H](CCCCNC(=O)CCCC[C@@H]1SC[C@@H]2NC(=O)N[C@@H]21)C(N)=O [SPN16, D-Biotin-D-Arg-L-Tyr-D-Arg-L-Phe-L-Lys(biotinyl)-NH2] (Biotin-[dR]Y[dR]FK(Biotin)-NH2) |  |  | significantly accelerated the closure of the scratch area | three times more effective |  |  |  | cell viability after serum deprivation compared to control, FIG. 9 (ARPE-19 cells [8]; 30 days of serum deprivation): doubled; cell number after prolonged serum deprivation, microscopic images FIG. 8 (ARPE-19 cells [8]; 30 days serum-free): increased cell number; wound healing (scratch closure), FIG. 18 (ARPE-19 cells [9]): accelerated wound healing; intracellular streptavidin staining (cellular uptake of biotin), microscopic images FIG. 4 [10]: intense red staining with a perinuclear distribution |
| O=C(O)CCCC[C@@H]1SC[C@@H]2NC(=O)N[C@@H]21 [biotin] | no effect | small effect on reducing scratch area | significantly accelerated the closure of the scratch area |  | small and did not reach statistical significance | no effect | did not reach statistical significance | increase of the percent of proliferating cells at the edge of the scratch, FIG. 23 ([2]; compared to control): without effect |
